These results are taken from patent publication US20230165974A1, “COMPOSITIONS AND METHODS FOR DELIVERING PHARMACEUTICALLY ACTIVE AGENTS” (MEDIMMUNE, LLC, priority 2020, published 2023).

One assay concerns H1299 cells. As to the kind of experiment: Toxicity of polymer materials in vitro (metabolic/luminescent viability assay). The format is cell-based. Particulars: H1299, 16-hour exposure, polymer in OPTI-MEM. The method, then: Material toxicity was assessed using live dead assays.
H1299 cells were seeded in 96-well plates (10000/well). After a 24 h recovery period, cells were treated with 0.1 to 2 μg of PEI (25K, Polyscience, Inc., Philadelphia Pa.), PLL (Alamanda Polymers, Inc., Huntsville Ala., 5 kDa), and P: PLL(M) 33, P: PLL(MN) 33, and P: PLL(TM) 33″ prepared in OPTI-MEM. After a 16-hour exposure, cells were analysed using a live/dead stain or metabolic assay. For the live/dead assay, 10 μL of Calcein AM (2 mM in DMSO) and 5 of propidium iodide (2 mM DMSO) stock solutions were dissolved in 5 mL of PBS. The cells were then washed with PBS twice and staining solution added (100 μL/well). After a 30-minute incubation period at 37° C., the cells were imaged using an IncuCyte plate reader (Sartorius). Alternatively, metabolic assays were performed using Celriter-Glo·Luminescent Assay using the manufacturers standard protocol. Luminescence measurements were collected using a PHERAStar plate reader (BMG LabTech) and IC50 doses were derived by fitting the data in Microsoft excel.

In another assay the test system is C2C12. Described as above. The format is cell-based.

Take Poly-L-lysine [P: PLL]: the Toxicity/IC50 in the assay with H1299 cells is 0.21 μg/well; in the assay with C2C12 it was 0.33 μg/well.
